Reference: US11261201B2 (priority 2018, dated 2022)
Values after ≈ are worked out from the molar mass of the structure shown. Where two headings read alike, the source gives them in different places.

Key:
E. coli = assay: Gram negative MIC protocol (OD600, LB, 24 h); conditions: Escherichia coli
Procedure: (§1) Overnight bacterial cultures were grown in LB with no added antibiotics at 37° C. with shaking. A 1:1000 dilution of these cultures into LB was exposed to concentration gradients of compounds in 96-well plates (100 μL per well assay volume). Resulting plates were incubated at 37° C. for 24 h without shaking, and OD600 was measured at the end of the incubation. MICs were determined as the lowest concentrations at which OD600 remained at baseline.

A. baumannii = assay: Gram negative MIC protocol (OD600, LB, 24 h); conditions: Acinetobacter baumannii
Procedure: as §1

H37RvMA = assay: Tuberculosis Alamar Blue/Resazurin assay (MIC); assay type: cell-based; conditions: Mycobacterium tuberculosis, H37RV, read-out: WT H37Rv MTB Activity
[1] = read-out: MIC E. coli delta-TolC LB Media, E. coli delta-TolC, LB media, OD600
[2] = read-out: MIC WT E. coli LB Media, WT E. coli, LB media, OD600
[3] = read-out: MIC A. baumannii LB Media, A. baumannii, LB media, 24 h, OD600
[4] = read-out: MIC A. baumannii LB Media

SMILES | MIC (E. coli; [1]) | MIC (E. coli; [2]) | MIC (A. baumannii; [3]) | MIC (H37RvMA) | MIC (H37RvMA; WT H37Rv MTB) | MIC (A. baumannii; [4]) | MIC (E. coli; read-out: MIC E. coli delta-TolC LB Media) | MIC (E. coli; read-out: MIC WT E. coli LB Media)
COc1cc(CC(C)NCc2ccccc2)ccn1 (stereo not shown) [B85] | > 150 µM | > 150 µM | > 150 µM | > 150 µM |  |  |  | 
C[C@H](NCc1ccccc1)[C@@H]1C[C@H]1c1ccccc1 [B86] | > 150 µM | > 150 µM | > 150 µM |  | > 150 µM |  |  | 
CC(NCc1ccccc1)C12CCC(CC1)CC2 (stereo not shown) [B87] | > 150 µM | 300 µM (≈ 73 µg/mL) | > 150 µM |  | > 150 µM |  |  | 
CC1(C)[C@@H]2C[C@](C)(CNCc3ccccc3)C[C@@H]21 [B88] | > 150 µM | > 150 µM | > 150 µM |  | > 150 µM |  |  | 
CC(NCc1ccccc1)C(C)C1CCCCC1 (stereo not shown) [B89] | > 150 µM | 300 µM (≈ 73.6 µg/mL) | > 150 µM |  | 91 µM (≈ 22.3 µg/mL) |  |  | 
CC(C)(CN1CCCOCC1)NCc1ccccc1 [B90] | > 150 µM | > 150 µM | > 150 µM |  | > 150 µM |  |  | 
Brc1ccc(CC2(NCc3ccccc3)CC2)cc1 [B91] | 90 µM (≈ 28.5 µg/mL) | > 150 µM | > 150 µM | > 150 µM |  |  |  | 
CC(C)(CC1CCCCCC1)NCc1ccccc1 [B92] | > 150 µM | > 150 µM | > 150 µM |  | > 150 µM |  |  | 
CC(C)(Cc1ccc(C(F)(F)F)cc1)NCc1ccccc1 [B93] | > 150 µM | > 150 µM |  | > 150 µM |  | > 150 µM |  | 
C[C@@H](CC1CCCCC1)NCc1ccccc1 [B94] | 7 µM (≈ 1.62 µg/mL) | 17 µM (≈ 3.93 µg/mL) |  | > 150 µM |  | 91 µM (≈ 21.1 µg/mL) |  | 
C[C@H](CC1CCCCC1)NCc1ccccc1 [B95] | > 150 µM | > 150 µM |  | 55 µM (≈ 12.7 µg/mL) |  | > 150 µM |  | 
FC(F)(F)c1ccc(CC2(NCc3ccccc3)CC2)cc1 [B96] | 90 µM (≈ 27.5 µg/mL) | > 150 µM | > 150 µM | > 150 µM |  |  |  | 
Fc1ccc(CC2(NCc3ccccc3)CC2)cc1 [B97] | > 150 µM | > 150 µM | > 150 µM | > 150 µM |  |  |  | 
CC1(c2ccc(F)cc2)N(Cc2ccccc2)C12CC2 (stereo not shown) [B98] |  |  | > 150 µM | > 150 µM |  |  | 150 µM (≈ 40.1 µg/mL) | > 150 µM
c1ccc(CNCC2CCCCCC2)cc1 [B99] | > 150 µM | > 150 µM | > 150 µM |  | 55 µM (≈ 12 µg/mL) |  |  | 
CC1(CNCc2ccccc2)CCCCCC1 [B100] | > 150 µM | > 150 µM | > 150 µM |  | > 150 µM |  |  | 
CC(NCc1ccccc1)C1CCCCCC1 (stereo not shown) [B101] | 40 µM (≈ 9.26 µg/mL) | 70 µM (≈ 16.2 µg/mL) | 150 µM (≈ 34.7 µg/mL) |  | > 150 µM |  |  | 
c1ccc(CNCCC2CCCCCC2)cc1 [B102] | 90 µM (≈ 20.8 µg/mL) | 120 µM (≈ 27.8 µg/mL) | 150 µM (≈ 34.7 µg/mL) |  | 91 µM (≈ 21.1 µg/mL) |  |  | 
CC(CNCc1ccccc1)C1CCCCC1 (stereo not shown) [B103] | 150 µM (≈ 34.7 µg/mL) | 150 µM (≈ 34.7 µg/mL) | > 150 µM |  | > 150 µM |  |  | 
c1ccc(CNCCC23CC4CC(CC(C4)C2)C3)cc1 [B104] | 91 µM (≈ 24.5 µg/mL) | > 150 µM | > 150 µM |  | 55 µM (≈ 14.8 µg/mL) |  |  | 
c1ccc(CNCCc2cccc3c2NCCC3)cc1 [B105] | > 150 µM | > 150 µM | > 150 µM |  | 91 µM (≈ 24.2 µg/mL) |  |  | 
CC(Cc1ccc2ccccc2c1)NCc1ccccc1 (stereo not shown) [B106] | > 150 µM | > 150 µM | > 150 µM | 150 µM (≈ 41.3 µg/mL) |  |  |  | 
c1ccc(CNCC2CC23CCCc2ccccc23)cc1 (stereo not shown) [B107] | > 150 µM | > 150 µM | > 150 µM |  | > 150 µM |  |  | 
CC1(C)Cc2cccc(CCNCc3ccccc3)c2O1 [B108] | > 150 µM | > 150 µM |  | > 150 µM |  | > 150 µM |  | 
CC1(C)CCC2(CC2CNCc2ccccc2)c2ccccc21 (stereo not shown) [B109] | 91 µM (≈ 27.8 µg/mL) | > 150 µM | 150 µM (≈ 45.8 µg/mL) |  | 55 µM (≈ 16.8 µg/mL) |  |  | 
